Reference: ChEMBL document CHEMBL3632591, “Discovery and structural diversity of the hepatitis C virus NS3/4A serine protease inhibitor series leading to clinical candidate IDX320” (Bioorg Med Chem Lett, 2015)

How the values were obtained:
[1] = Cytotoxicity against human HuH7 cells by colorimetric proliferation assay; type: cell-based, Huh-7
[2] = Cmax in Sprague-Dawley rat plasma at 2 mg/kg, iv administered as single dose measured after 8 hrs; type: ADME, organism-based; design: dose 2 mg/kg, route intravenous
[3] = Tmax in Sprague-Dawley rat at 2 mg/kg, iv administered as single dose; type: ADME, organism-based; settings: in vivo
[4] = Half life in Sprague-Dawley rat at 2 mg/kg, iv administered as single dose; type: ADME, organism-based; settings: in vivo
[5] = Tmax in Sprague-Dawley rat at 10 mg/kg, po administered as single dose; type: ADME, organism-based; settings: in vivo
[6] = AUCt in Sprague-Dawley rat at 10 mg/kg, po administered as single dose; type: ADME, organism-based; settings: in vivo
[7] = AUC (infinity) in Sprague-Dawley rat at 10 mg/kg, po administered as single dose; type: ADME, organism-based; design: dose 10 mg/kg, time infinity, route oral; settings: in vivo
[8] = AUC (infinity) in Sprague-Dawley rat at 2 mg/kg, iv administered as single dose; type: ADME, organism-based; design: dose 2 mg/kg, route intravenous, time infinity; settings: in vivo
[9] = Half life in Sprague-Dawley rat at 10 mg/kg, po administered as single dose; type: ADME, organism-based; settings: in vivo
[10] = Plasma concentration in CD-1 mouse at 2 mg/kg, iv administered as single dose measured after 24 hrs; type: ADME, organism-based
[11] = Oral bioavailability in Sprague-Dawley rat at 10 mg/kg administered as single dose; type: ADME, organism-based; settings: in vivo
[12] = Ratio of drug level in Sprague-Dawley rat liver to plasma at 10 mg/kg, po measured at 24 hrs; type: ADME, organism-based; settings: liver and plasma
[13] = AUC (0 to 24 hrs) in CD-1 mouse at 2 mg/kg, iv administered as single dose measured after 24 hrs; type: ADME, organism-based; design: time < 24 hr, dose 2 mg/kg, route intravenous; settings: in vivo
[14] = Volume of distribution in CD-1 mouse at 2 mg/kg, iv administered as single dose measured after 24 hrs; type: ADME, organism-based; settings: in vivo
[15] = Cmax in CD-1 mouse at 2 mg/kg, po administered as single dose; type: ADME, organism-based; design: dose 2 mg/kg, route oral; settings: in vivo
[16] = Tmax in CD-1 mouse at 2 mg/kg, po administered as single dose; type: ADME, organism-based; settings: in vivo
[17] = AUC (0 to 24 hrs) in CD-1 mouse at 2 mg/kg, po administered as single dose; type: ADME, organism-based; design: dose 2 mg/kg, time < 24 hr, route oral; settings: in vivo
[18] = Oral bioavailability in CD-1 mouse at 2 mg/kg administered as single dose; type: ADME, organism-based; settings: in vivo
[19] = Plasma concentration in Cynomolgus monkey at 2 mg/kg, iv administered as single dose measured after 24 hrs; type: ADME, organism-based, Macaca fascicularis
[20] = Volume of distribution in Cynomolgus monkey at 2 mg/kg, iv administered as single dose; type: ADME, organism-based, Macaca fascicularis; settings: in vivo
[21] = Half life in Cynomolgus monkey at 2 mg/kg, iv administered as single dose; type: ADME, organism-based, Macaca fascicularis; settings: in vivo
[22] = Clearance in Cynomolgus monkey at 2 mg/kg, iv administered as single dose; type: ADME, organism-based, Macaca fascicularis; settings: in vivo
[23] = Cmax in Cynomolgus monkey at 2 mg/kg, po administered as single dose; type: ADME, organism-based, Macaca fascicularis; design: dose 2 mg/kg, route oral; settings: in vivo
[24] = AUC (infinity) in Cynomolgus monkey at 2 mg/kg, po administered as single dose; type: ADME, organism-based, Macaca fascicularis; design: dose 2 mg/kg, route oral, time infinity; settings: in vivo
[25] = Half life in Cynomolgus monkey at 2 mg/kg, po administered as single dose; type: ADME, organism-based, Macaca fascicularis; settings: in vivo
[26] = Oral bioavailability in Cynomolgus monkey at 2 mg/kg administered as single dose; type: ADME, organism-based, Macaca fascicularis; settings: in vivo
[27] = Inhibition of HCV genotype 2a NS3/4A protease; design: species or system Hepatitis C virus subtype 2a
[28] = Inhibition of HCV genotype 4a NS3/4A protease; design: species or system Hepatitis C virus subtype 4a
[29] = Inhibition of HCV genotype 3a NS3/4A protease; design: species or system Hepatitis C virus subtype 3a
[30] = Efflux ratio of permeability in human Caco2 cells; type: ADME, cell-based; settings: Caco-2
[31] = Cytotoxicity against mouse hepatocytes; type: cell-based, Hepatocyte
[32] = Cytotoxicity against rat hepatocytes; type: cell-based, Hepatocyte
[33] = Cytotoxicity against monkey hepatocytes; type: cell-based, Macaca mulatta, Hepatocyte; settings: rhesus monkey
[34] = Cytotoxicity against human hepatocytes; type: cell-based, Hepatocyte
[35] = biological target: T1, Cytochrome P450 1A2 (Homo sapiens, UniProt P05177); assay: Inhibition of human CYP1A2; type: ADME
T1 sequence (P05177 whole entry): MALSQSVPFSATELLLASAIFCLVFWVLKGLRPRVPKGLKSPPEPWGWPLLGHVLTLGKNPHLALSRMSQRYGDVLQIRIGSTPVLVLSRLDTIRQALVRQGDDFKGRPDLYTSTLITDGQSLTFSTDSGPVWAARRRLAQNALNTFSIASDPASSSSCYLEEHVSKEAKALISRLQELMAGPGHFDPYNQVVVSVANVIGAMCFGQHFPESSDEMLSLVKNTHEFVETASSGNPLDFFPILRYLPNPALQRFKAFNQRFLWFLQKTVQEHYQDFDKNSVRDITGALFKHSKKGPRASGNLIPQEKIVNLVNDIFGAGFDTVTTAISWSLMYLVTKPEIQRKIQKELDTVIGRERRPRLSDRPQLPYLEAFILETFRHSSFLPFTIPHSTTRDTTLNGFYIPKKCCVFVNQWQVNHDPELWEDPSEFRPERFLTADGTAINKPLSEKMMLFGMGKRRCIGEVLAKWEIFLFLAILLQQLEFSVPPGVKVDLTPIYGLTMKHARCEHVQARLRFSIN

[36] = biological target: T2, Cytochrome P450 2B6 (Homo sapiens, UniProt P20813); assay: Inhibition of human CYP2B6; type: ADME
T2 sequence (P20813 whole entry): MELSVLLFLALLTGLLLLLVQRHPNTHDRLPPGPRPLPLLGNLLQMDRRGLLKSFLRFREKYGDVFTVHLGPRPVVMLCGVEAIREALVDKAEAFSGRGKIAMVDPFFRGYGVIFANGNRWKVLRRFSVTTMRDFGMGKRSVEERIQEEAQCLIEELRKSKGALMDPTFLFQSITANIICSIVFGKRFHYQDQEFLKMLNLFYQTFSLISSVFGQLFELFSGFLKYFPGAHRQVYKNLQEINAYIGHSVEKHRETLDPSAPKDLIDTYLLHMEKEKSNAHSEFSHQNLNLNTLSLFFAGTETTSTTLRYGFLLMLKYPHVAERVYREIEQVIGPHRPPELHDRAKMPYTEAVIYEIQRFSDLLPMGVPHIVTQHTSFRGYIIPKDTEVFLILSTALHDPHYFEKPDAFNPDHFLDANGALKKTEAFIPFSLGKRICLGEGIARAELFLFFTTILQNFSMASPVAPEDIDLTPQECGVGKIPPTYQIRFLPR

[37] = biological target: Cytochrome P450 2C9 (Homo sapiens, UniProt P11712); assay: Inhibition of human CYP2C9; type: ADME
[38] = biological target: Cytochrome P450 3A4 (Homo sapiens, UniProt P08684); assay: Inhibition of human CYP3A4; type: ADME
[39] = tested on: Rhesus monkey; assay: Toxicity in monkey assessed as effect on cardiovascular system at 250 mg/kg, po administered as single dose; type: organism-based, Macaca mulatta; settings: in vivo
[40] = tested on: Rhesus monkey; assay: Toxicity in monkey assessed as effect on respiratory system at 250 mg/kg, po administered as single dose; type: organism-based, Macaca mulatta; settings: in vivo
[41] = tested on: Mus musculus; assay: Toxicity in mouse assessed as effect on central nervous system at 250 mg/kg, po administered as single dose; type: organism-based; settings: in vivo
[42] = tested on: Mus musculus; assay: Toxicity in mouse assessed as effect on renal function at 250 mg/kg, po administered as single dose; type: organism-based; settings: in vivo
[43] = Inhibition of cellular protease (unknown origin); settings: Homo sapiens

Chain of Cytochrome P450 2C9 (P11712 whole entry): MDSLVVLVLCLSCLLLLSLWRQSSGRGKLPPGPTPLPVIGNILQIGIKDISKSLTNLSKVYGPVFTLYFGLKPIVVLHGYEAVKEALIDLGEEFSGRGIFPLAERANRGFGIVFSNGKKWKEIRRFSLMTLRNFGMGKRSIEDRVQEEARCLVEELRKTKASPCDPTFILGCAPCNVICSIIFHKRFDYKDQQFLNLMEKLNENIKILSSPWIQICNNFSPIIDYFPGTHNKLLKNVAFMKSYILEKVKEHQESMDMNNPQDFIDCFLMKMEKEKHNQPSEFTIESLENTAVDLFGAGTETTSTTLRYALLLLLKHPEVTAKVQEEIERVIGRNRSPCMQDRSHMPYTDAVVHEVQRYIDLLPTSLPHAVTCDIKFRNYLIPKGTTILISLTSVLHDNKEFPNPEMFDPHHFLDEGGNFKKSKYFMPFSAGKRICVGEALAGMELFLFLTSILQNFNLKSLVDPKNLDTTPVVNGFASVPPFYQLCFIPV
Chain of Cytochrome P450 3A4 (P08684 whole entry): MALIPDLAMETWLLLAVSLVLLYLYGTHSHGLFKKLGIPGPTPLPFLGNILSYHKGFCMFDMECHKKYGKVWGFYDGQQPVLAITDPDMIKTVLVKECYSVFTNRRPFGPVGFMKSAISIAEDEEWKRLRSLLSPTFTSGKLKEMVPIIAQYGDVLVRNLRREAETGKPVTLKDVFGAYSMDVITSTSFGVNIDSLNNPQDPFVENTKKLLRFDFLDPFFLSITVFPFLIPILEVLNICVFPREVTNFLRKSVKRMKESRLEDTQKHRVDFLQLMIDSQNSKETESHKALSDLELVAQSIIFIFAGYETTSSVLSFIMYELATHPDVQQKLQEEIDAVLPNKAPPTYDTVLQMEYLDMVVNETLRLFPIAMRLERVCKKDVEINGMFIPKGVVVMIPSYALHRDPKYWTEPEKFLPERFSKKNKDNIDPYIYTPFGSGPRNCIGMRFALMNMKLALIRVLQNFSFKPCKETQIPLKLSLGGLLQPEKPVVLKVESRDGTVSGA

SMILES: COc1ccc2c(O[C@H]3CCN4C(=O)N(C)CCCCC=C[C@@H]5C[C@@]5(C(=O)NS(=O)(=O)C5(C)CC5)NC(=O)[C@@H]4C3)cc(-c3nc(C(F)(F)F)cs3)nc2c1C
- CC50 [1]: 52.8 µM
- Cmax [2]: 2060 ng/mL
- Tmax [3]: 4.8 min
- half-life [4]: 1.5 h
- Tmax [5]: 1 h
- AUC(0-t) [6]: 3920 ng·h/mL
- AUC(0-inf) [7]: 3970 ng·h/mL
- AUC(0-inf) [8]: 1770 ng·h/mL
- half-life [9]: 3.6 h
- concentration at 24 h [10]: 7.9 ng/mL
- bioavailability [11]: 45%
- Kp at 24 h [12]: 61.7
- AUC(0-t) at 24 h [13]: 4060 ng·h/mL
- Vd [14]: 4.4 L/kg
- Cmax [15]: 174 ng/mL
- Tmax [16]: 2 h
- AUC(0-t) at 24 h [17]: 1410 ng·h/mL
- bioavailability [18]: 34.7%
- concentration at 24 h [19]: 66 ng/mL
- Vd [20]: 3.5 L/kg
- half-life [21]: 10.3 h
- clearance [22]: 3.83 mL/min/kg
- Cmax [23]: 1030 ng/mL
- AUC(0-inf) [24]: 8920 ng·h/mL
- half-life [25]: 7.6 h
- bioavailability [26]: 107%
- IC50 [27]: 0.0008 µM
- IC50 [28]: 0.0008 µM
- IC50 [29]: 0.023 µM
- efflux ratio [30]: 2.7
- CC50 [31]: > 10 µM
- CC50 [32]: > 10 µM
- CC50 [33]: > 10 µM
- CC50 [34]: > 10 µM
- IC50 [35]: ≥ 10 µM
- IC50 [36]: ≥ 10 µM
- IC50 [37]: ≥ 10 µM
- IC50 [38]: ≥ 10 µM
- Activity [39]: Non-toxic
- Activity [40]: Non-toxic
- Activity [41]: Non-toxic
- Activity [42]: Non-toxic
- IC50 [43]: > 10 µM
